According to US9725442B2, “Heterocyclic derivative having PGD2 receptor antagonist activity” (Shionogi & Co., Ltd., priority 2011, dated 2017):
Like-named read-outs stand apart in the source and are kept apart here.

Key:
CRTH2 [1] = biological target: T1, CRTH2 (Homo sapiens (Human), UniProt Q9Y5Y4); assay: CRTH2 receptor binding inhibitory activity ([3H]-PGD2 displacement, membranes of CRTH2-expressing K562 cell); details: [3H]-PGD2 displacement, membrane of CRTH2-expressing K562 cell, read-out: Ki
In short: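 Incubation ran 60 min at room temperature using 20 μg/well membrane from CRTH2-expressing K562 cells in pH 7.4 Tris/HCl (50 mM) with 10 mM MgCl2.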

CRTH2 [2] = biological target: T1, CRTH2; assay: CRTH2 inhibitory activity in human eosinophil (PGD2 induced eosinophil shape change); format: cell-based; details: human peripheral blood, 40 nM PGD2, forward scatter; read-out: IC50, inhibition of PGD2 induced eosinophil shape change
Description: CRTH2 inhibitory activity in human eosinophil was determined as inhibitory activity of PGD2 induced eosinophil shape change.
Human peripheral blood was mixed with compounds of the present invention at 37° C. After 5 min, the blood was treated with 40 nM of PGD2 for 10 min and fixed. The blood was hemolyzed and centrifuged. Blood cells were resuspended in PBS and measured forward scatter (FS) using flow cytometer (FACSAria). Inhibition ratio was defined by comparing FS with and without compound, and IC50 for each compound was calculated from inhibitory curve.

CYP2D6 = CYP2D6 (Homo sapiens (Human), UniProt P10635); assay: CYP inhibition test, dextromethorphan O-demethylation; format: in vitro ADME; details: pooled human hepatic microsome, 5 μmol/L dextromethorphan
Text: Using commercially available pooled human hepatic microsome, and employing, as markers, 7-ethoxyresorufin O-deethylation (CYP1A2), tolbutamide methyl-hydroxylation (CYP2C9), mephenyloin 4′-hydroxylation (CYP2C19), dextromethorphan O-demethylation (CYP2D6), and terfenedine hydroxylation as typical substrate metabolism reactions of human main five CYP enzyme forms (CYP1A2, 2C9, 2C19, 2D6, 3A4), an inhibitory degree of each metabolite production amount by a compound of the present compound was assessed.
The reaction conditions were as follows: substrate, 0.5 μmol/L ethoxyresorufin (CYP1A2), 100 μmol/L tolbutamide (CYP2C9), 50 μmol/L S-mephenyloin (CYP2C19), 5 μmol/L dextromethorphan (CYP2D6), 1 μmol/L terfenedine (CYP3A4); reaction time, 15 minutes; reaction temperature, 37° C.; enzyme, pooled human hepatic microsome 0.2 mg protein/mL; concentration of a compound of the present invention, 1, 5, 10, 20 μmol/L (four points).
Each five kinds of substrates, human hepatic microsome, or a compound of the present invention in 50 mM Hepes buffer as a reaction mixture was added to a 96-well plate at the composition as described above, NADPH, as a cofactor was added to initiate metabolism reactions as markers and. After the incubation at 37° C. for 15 minutes, a methanol/acetonitrile=1/1 (v/v) solution was added to stop the reaction. After the centrifugation at 3000 rpm for 15 minutes, resorufin (CYP1A2 metabolite) in the supernatant was quantified by a fluorescent multilabel counter and tolbutamide hydroxide (CYP2C9 metabolite), mephenyloin 4′ hydroxide (CYP2C19 metabolite), dextrorphan (CYP2D6 metabolite), and terfenadine alcohol (CYP3A4 metabolite) were quantified by LC/MS/MS.

[3] = biological target: CYP3A4 enzyme expressed in Escherichia coli (Homo sapiens (Human), UniProt P08684); assay: CYP3A4 fluorescent MBI test; format: in vitro ADME; details: pre-reaction time 0 or 30 minutes, substrate 7-BFC; read-out: CYP3A4 MBI, difference between IC50 values with and without preincubation
Description: The CYP3A4 fluorescent MBI test is a test of investigating enhancement of CYP3A4 inhibition of a compound by a metabolism reaction, and the test was performed using, as CYP3A4 enzyme expressed in Escherichia coli and employing, as an index, a reaction in which 7-benzyloxytrifluoromethylcoumarin (7-BFC) is debenzylated by the CYP3A4 enzyme to produce a metabolite, 7-hydroxytrifluoromethylcoumarin (HFC) emitting fluorescent light.
The reaction conditions were as follows: substrate, 5.6 μmol/L 7-BFC; pre-reaction time, 0 or 30 minutes; reaction time, 15 minutes; reaction temperature, 25° C. (room temperature); CYP3A4 content (expressed in Escherichia coli), at pre-reaction […], at reaction […] (at 10-fold dilution); concentration of a compound of the present, 0.625, 1.25, 2.5, 5, 10, 20 μmol/L (six points).
An enzyme in a K-Pi buffer (pH 7.4) and a compound solution of the present invention as a pre-reaction mixture were added to a 96-well plate at the composition of the pre-reaction, a part of it was transferred to another 96-well plate so that it was 1/10 diluted by a substrate in a K-Pi buffer, NADPH as a co-factor was added to initiate a reaction as an index (without preincubation) and, after a predetermined time of a reaction, acetonitrile/0.5 mol/L Tris(trishydroxyaminomethane)=4/1 (V/V) was added to stop the reaction. In addition, NADPH was added to a remaining preincubation solution to initiate a preincubation (with preincubation) and, after a predetermined time of a preincubation, a part was transferred to another plate so that it was 1/10 diluted with a substrate and a K-Pi buffer to initiate a reaction as an index. After a predetermined time of a reaction, acetonitrile/0.5 mol/L Tris(trishydroxyaminomethane)=4/1 (V/V) was added to stop the reaction. For the plate on which each index reaction had been performed, a fluorescent value of 7-HFC which is a metabolite was measured with a fluorescent plate reader. (Ex=420 nm, Em=535 nm).

[4] = BA test (oral absorbability); format: in vivo; details: rat, plasma; Rats, Oral administration 1 mg/kg
Description: An experimental material and a method for examining oral absorbability • (1) Animals used: rats or mice were used. • (2) Breeding condition: chow and sterilized tap water were allowed to be taken in freely. • (3) Setting of a dosage and grouping: a predetermined dosage was administered orally or intravenously. Groups were formed as shown below. (A dosage varied depending on each compound) Oral administration 1-30 mg/kg (n=2 to 3) Intravenous administration 0.5-10 mg/kg (n=2 to 3) • (4) Preparation of administered liquid: In oral administration, a solution or suspension was administered. […] In intravenous administration, administration from the caudal vein was conducted using a syringe with an injection needle. • (6) Evaluation item: Blood was chronologically collected, and then the concentration of a compound of the present invention blood plasma was measured using a LC/MS/MS. • (7) Statistical analysis: With regard to a shift in plasma concentration, the plasma concentration-time area under the curve (AUC) was calculated using a nonlinear least-squares program WinNonlin®. Bioavailability (BA) was calculated from the AUCs of the oral administration group and the intravenous administration group, respectively. […]

[5] = CRTH2 receptor binding, categorized AAAA/AAA

Chain of CYP3A4 enzyme expressed in Escherichia coli (P08684 whole entry): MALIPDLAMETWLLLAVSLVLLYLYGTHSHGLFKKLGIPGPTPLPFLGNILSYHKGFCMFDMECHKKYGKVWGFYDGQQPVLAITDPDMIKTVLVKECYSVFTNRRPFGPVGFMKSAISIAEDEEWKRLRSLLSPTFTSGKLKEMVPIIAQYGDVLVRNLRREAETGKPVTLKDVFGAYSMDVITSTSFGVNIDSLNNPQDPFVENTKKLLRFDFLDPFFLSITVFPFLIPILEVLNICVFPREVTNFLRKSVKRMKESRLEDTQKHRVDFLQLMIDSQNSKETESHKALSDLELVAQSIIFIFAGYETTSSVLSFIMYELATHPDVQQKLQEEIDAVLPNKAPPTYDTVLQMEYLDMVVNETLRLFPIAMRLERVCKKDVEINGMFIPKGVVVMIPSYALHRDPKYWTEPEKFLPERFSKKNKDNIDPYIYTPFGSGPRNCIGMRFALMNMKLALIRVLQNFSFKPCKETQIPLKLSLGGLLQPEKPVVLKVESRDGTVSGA
Chain of CYP2D6 (P10635 whole entry): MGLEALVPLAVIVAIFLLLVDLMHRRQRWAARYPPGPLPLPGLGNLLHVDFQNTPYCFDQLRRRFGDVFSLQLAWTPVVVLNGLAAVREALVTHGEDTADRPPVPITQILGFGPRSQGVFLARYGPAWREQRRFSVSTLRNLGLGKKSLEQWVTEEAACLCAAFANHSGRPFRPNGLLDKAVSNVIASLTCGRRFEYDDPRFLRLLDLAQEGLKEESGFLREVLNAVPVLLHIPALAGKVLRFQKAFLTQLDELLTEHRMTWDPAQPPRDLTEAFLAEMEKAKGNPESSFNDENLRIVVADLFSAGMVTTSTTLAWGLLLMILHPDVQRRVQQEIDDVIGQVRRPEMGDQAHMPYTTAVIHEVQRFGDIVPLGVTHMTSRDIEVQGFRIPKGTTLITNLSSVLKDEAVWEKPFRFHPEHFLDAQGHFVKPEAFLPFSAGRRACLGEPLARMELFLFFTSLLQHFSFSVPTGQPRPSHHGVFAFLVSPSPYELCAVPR
T1 sequence (Q9Y5Y4 whole entry): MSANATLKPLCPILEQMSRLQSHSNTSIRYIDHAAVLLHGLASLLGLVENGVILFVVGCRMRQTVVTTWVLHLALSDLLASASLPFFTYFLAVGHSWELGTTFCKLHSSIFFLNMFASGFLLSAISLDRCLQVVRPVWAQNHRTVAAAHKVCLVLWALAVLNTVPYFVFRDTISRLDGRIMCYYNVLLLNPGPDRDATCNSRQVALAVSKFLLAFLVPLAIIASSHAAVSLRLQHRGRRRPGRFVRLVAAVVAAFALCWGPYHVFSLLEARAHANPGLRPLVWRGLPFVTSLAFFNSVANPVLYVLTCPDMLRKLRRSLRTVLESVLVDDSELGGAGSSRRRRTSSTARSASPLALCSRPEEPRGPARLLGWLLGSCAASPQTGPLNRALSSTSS

Row | Structure (SMILES) | Ki (CRTH2 [1]; [5]) [nM] | IC50 (CRTH2 [2]) [nM] | IC50 (CYP2D6) [nM] | difference in IC50 with vs without preincubation [3] [nM] | Ki (CRTH2 [1]) [nM] | bioavailability [4] [%]
1 | CC(C)Oc1ccc(S(=O)(=O)N2C[C@@H](C)[C@@H](n3nc(CC(=O)O)c4ccc(F)cc43)C2)c(F)c1 [Compound I-52] | < 100 |  | > 20000 | ≤ 3000 | 5.1 | 
2 | CC(C)Oc1ccc(S(=O)(=O)N2C[C@@H](C)[C@@H](n3nc(CC(=O)O)c4ccc(F)cc43)C2)cn1 [Compound I-57] | < 100 |  | > 20000 | ≤ 3000 | 3.8 | 
3 | CCOc1ccc(S(=O)(=O)N2C[C@@H](C)[C@@H](n3nc(CC(=O)O)c4ccccc43)C2)cn1 [Compound I-96] | < 100 | 270 | > 20000 | ≤ 3000 | 37 | 82

Results, then the compound that gave them:

Row | Ki (CRTH2 [1]; [5]) [nM] | IC50 (CRTH2 [2]) [nM] | IC50 (CYP2D6) [nM] | difference in IC50 with vs without preincubation [3] [nM] | Ki (CRTH2 [1]) [nM] | bioavailability [4] [%] | Structure (SMILES)
4 | < 100 | 34 | > 20000 | ≤ 3000 |  |  | CC(C)Oc1ccc(S(=O)(=O)N2C[C@H](n3nc(CC(=O)O)c4ccc(F)cc43)C[C@H]2C#N)cc1 [Compound I-7]
5 |  | 15 | > 20000 | ≤ 3000 | 2.4 | 71 | CC(C)Oc1ccc(S(=O)(=O)N2C[C@@H](C)[C@@H](n3nc(CC(=O)O)c4ccc(F)cc43)C2)cc1 [Compound I-37]
